Source: the Deep4Chem optical property database
Values joined by “and” are separate entries in the source; they are usually repeats but may differ in a detail not shown here. Identical values can stand only once. One block for each molecule: values may come before it.

Assay: photoluminescence quantum yield (fraction); solvent given as SMILES

SMILES: CCC12N=N[C@](CC)(C3C4CCC(C4)C31)C1[C@@H]3CC[C@@H](C3)[C@H]12 (stereo not given in full)
- photoluminescence quantum yield (in CC#N): 0.19

SMILES: N#Cc1ccc(N2c3ccccc3C(c3ccccc3)(c3ccccc3)c3ccccc32)cc1
- photoluminescence quantum yield (in Cc1ccccc1): 0.22

SMILES: Cn1nc(-c2ccccc2)c2n[nH]nc2/c1=N\c1ccccn1
- photoluminescence quantum yield (in CC#N): 0.05
- photoluminescence quantum yield (in CCO): 0.06
- photoluminescence quantum yield (in Cc1ccccc1): 0.07

SMILES: COc1ccc2c(c1)c1cc(OC)ccc1n2-c1nc2ccccc2nc1-n1c2ccc(OC)cc2c2cc(OC)ccc21
- photoluminescence quantum yield (in Cc1ccccc1): 0.13

SMILES: COc1ccc(/C2=C3N=C(C(c4ccccc4)=C/3c3ccccc3)/C(c3ccc(OC)cc3)=c3\[nH]/c(c(-c4ccccc4)c3-c3ccccc3)=C(/c3ccc(OC)cc3)C3=N/C(=C(/c4ccc(OC)cc4)c4[nH]c2c(-c2ccccc2)c4-c2ccccc2)C(c2ccccc2)=C3c2ccccc2)cc1
- photoluminescence quantum yield (in ClCCl): 0.006

SMILES: CC(C)(C)c1cc(-c2c3cc(c(-c4cc(C(C)(C)C)cc(C(C)(C)C)c4)c4ccc([nH]4)c(-c4ccc([N+](=O)[O-])cc4)c4nc(c(-c5ccc([N+](=O)[O-])cc5)c5ccc2[nH]5)C=C4)N=C3)cc(C(C)(C)C)c1
- photoluminescence quantum yield (in ClCCl): 0.0263

SMILES: COc1ccc(-c2csc(/C(C#N)=C/c3ccncc3)n2)cc1
- photoluminescence quantum yield (in CC#N): 0.04
- photoluminescence quantum yield (in CCO): 0.002
- photoluminescence quantum yield (in CN(C)C=O): 0.016
- photoluminescence quantum yield (in CS(C)=O): 0.038
- photoluminescence quantum yield (in Cc1ccccc1): 0.285
- photoluminescence quantum yield (in ClCCl): 0.129

SMILES: CCOC(=O)C1=C(C(=O)OCC)C2(c3ccccc3-c3c(Br)cc(Br)cc32)C2(/C=C/c3ccc(Cl)cc3)c3cc(OC)c(OC)cc3CCN12 (stereo not given)
- photoluminescence quantum yield (in ClCCl): 0.00075

SMILES: CCOC(=O)CC[N+]1=c2cc3c(cc2CCC1)=Cc1c(c2ccc(N(C)C)cc2oc1=O)O3
- photoluminescence quantum yield (in CC#N): 0.217
- photoluminescence quantum yield (in CO): 0.152
- photoluminescence quantum yield (in ClCCl): 0.469
- photoluminescence quantum yield (in O): 0.03

SMILES: CCC1=C(C)C(=O)n2c1cc1[nH]c(C(=O)OC(C)(C)C)c(C)c1c2=O
- photoluminescence quantum yield (in C1CCCCC1): 0.03
- photoluminescence quantum yield (in CO): 0.71
- photoluminescence quantum yield (in CS(C)=O): 0.86
- photoluminescence quantum yield (in ClC(Cl)Cl): 0.72
- photoluminescence quantum yield (in c1ccccc1): 0.16

SMILES: Nc1ccccc1/C=C/C(F)(F)F
- photoluminescence quantum yield (in C1CCOC1): 0.77

SMILES: CCC1=C(C)C2=C(C)c3c(I)c(I)c(I)n3[B-](F)(F)[N+]2=C1C
- photoluminescence quantum yield (in C1CCCCC1): 0.1
- photoluminescence quantum yield (in CC(C)=O): 0.046
- photoluminescence quantum yield (in CCO): 0.061
- photoluminescence quantum yield (in CCOC(C)=O): 0.072
- photoluminescence quantum yield (in CO): 0.051
- photoluminescence quantum yield (in OCC(F)(F)F): 0.04

SMILES: CCCCCCc1ccc(/C=C/c2ccc(CCCCCC)s2)s1
- photoluminescence quantum yield (in Cc1ccccc1): 0.051

SMILES: CCOC(=O)c1sc2nc3c(c(C#N)c2c1N)CCCCCC3
- photoluminescence quantum yield (in c1ccccc1): 0.063

SMILES: CCCCOC(=O)c1cc(Cl)c2c3c(Cl)cc4c5c(cc(Cl)c(c6c(Oc7ccc(OC)cc7)cc(C(=O)OCCCC)c1c26)c53)C(=O)N(c1c(C(C)C)cccc1C(C)C)C4=O
- photoluminescence quantum yield (in Cc1ccccc1): 0.12

SMILES: c1ccc(-c2nc(-c3ccccc3)nc(-c3ccc(-n4c5ccccc5c5c6c(ccc54)-c4ccccc4C6(c4ccccc4)c4ccccc4)cc3)n2)cc1
- photoluminescence quantum yield (in O=P(c1ccccc1)(c1ccccc1)c1ccccc1Oc1ccccc1P(=O)(c1ccccc1)c1ccccc1): 0.979

SMILES: CC[N+](CC)=c1ccc2cc3c(=O)oc4cc5c(cc4c3oc-2c1)CCCN5C
- photoluminescence quantum yield (in ClCCl): 0.265
- photoluminescence quantum yield (in O): 0.009

SMILES: CC/[NH+]=c1\cc2oc3cc(NCCNC(=O)C(NC(=O)OC(C)(C)C)C(C)C)c4ccccc4c3nc-2cc1C (stereo not given)
- photoluminescence quantum yield (in CCO): 0.35
- photoluminescence quantum yield (in O): 0.48

SMILES: CC1(C)c2cc(/C=C/c3nc(/C=C/c4ccc5c(c4)C(C)(C)c4cc(N(c6ccccc6)c6ccc7ccccc7c6)ccc4-5)nc(/C=C/c4ccc5c(c4)C(C)(C)c4cc(N(c6ccccc6)c6ccc7ccccc7c6)ccc4-5)n3)ccc2-c2ccc(N(c3ccccc3)c3ccc4ccccc4c3)cc21
- photoluminescence quantum yield (in Cc1ccccc1): 0.25

SMILES: CC(C)(C)c1ccc2c(c1)sc1[n+]2[B-](F)(F)n2c(c3cccc4cccc2c43)=N1
- photoluminescence quantum yield (in C1CCOC1): 0.85
- photoluminescence quantum yield (in CC#N): 0.93
- photoluminescence quantum yield (in CCCCCC): 0.87
- photoluminescence quantum yield (in Cc1ccccc1): 0.86
- photoluminescence quantum yield (in ClCCl): 0.86

SMILES: O=C1c2ccc3c4c(NC5CCCCC5)cc5c6c(ccc(c7c(NC8CCCCC8)cc(c2c37)C(=O)N1C1CCCCC1)c64)C(=O)N(C1CCCCC1)C5=O
- photoluminescence quantum yield (in ClC(Cl)Cl): 0.008

SMILES: CC/[NH+]=c1\cc2oc3cc(NCCO)c4ccccc4c3nc-2cc1C
- photoluminescence quantum yield (in CCO): 0.49
- photoluminescence quantum yield (in O): 0.36

SMILES: N#Cc1c(-n2c3ccc(-c4ccccc4)cc3c3cc(-c4ccccc4)ccc32)c(-n2c3ccccc3c3ccccc32)c(-n2c3ccc(-c4ccccc4)cc3c3cc(-c4ccccc4)ccc32)c(-n2c3ccccc3c3ccccc32)c1-n1c2ccc(-c3ccccc3)cc2c2cc(-c3ccccc3)ccc21
- photoluminescence quantum yield (in Cc1ccccc1): 0.83

Continued, values first:

- photoluminescence quantum yield (in c1ccccc1): 0.076
SMILES: COc1ccc(-c2nc3ccccc3oc2=O)cc1

- photoluminescence quantum yield (in ClCCl): 0.053
SMILES: Cc1cc2sccc2c2[nH]c3ccccc3c12

- photoluminescence quantum yield (in ClC(Cl)Cl): 0.7
SMILES: CCCCN1c2ccccc2Sc2cc(/C=C\c3cc(=O)oc4ccc(C)cc34)ccc21

- photoluminescence quantum yield (in CC#N): 0.078
SMILES: Oc1ccc2ccccc2c1/C=N/C1CCCCC1/N=C/c1c(O)ccc2ccccc12 (stereo not given)

- photoluminescence quantum yield (in C1CCOC1): 0.011
SMILES: CCOC(=O)c1ccc(C2=C(c3ccccc3)c3oc4ccccc4[n+]3[B-](F)(F)O2)cc1

- photoluminescence quantum yield (in ClCCl): 0.7
SMILES: c1ccc2c(-c3c4ccccc4c(-c4ccc(-c5ccc(-n6c7ccccc7c7ccccc76)cc5)cc4)c4ccccc34)cccc2c1

- photoluminescence quantum yield (in ClC(Cl)Cl): 0.35
SMILES: CN(C)c1ccc(-c2ccc(-c3cc(-c4ccccc4)c(-c4ccccc4)c(-c4ccccc4)c3-c3ccccc3)s2)cc1

- photoluminescence quantum yield (in ClC(Cl)Cl): 0.159
SMILES: c1ccc(-c2ccc(-c3nc(-c4ccccc4)c(N(c4ccccc4)c4ccccc4)[se]3)cc2)cc1

- photoluminescence quantum yield (in CN(C)C=O): 0.012
- photoluminescence quantum yield (in ClCCl): 0.0046
SMILES: C1=Cc2nc1c(-c1cccs1)c1ccc([nH]1)c(-c1cccs1)c1nc(c(-c3cccs3)c3ccc([nH]3)c2-c2cccs2)C=C1

- photoluminescence quantum yield (in ClCCl): 0
SMILES: F[B-]1(F)n2c(c(-c3ccccc3)c3ccccc32)C(c2ccccc2)=C2C(c3ccccc3)=c3ccccc3=[N+]21

- photoluminescence quantum yield (in ClC(Cl)Cl): 0.61
SMILES: C(#Cc1ccc(C#Cc2ccc(C#Cc3ccccc3)cc2)cc1)c1ccccc1

- photoluminescence quantum yield (in ClC(Cl)Cl): 0.15
SMILES: O=c1oc2ccccc2cc1-c1cn2ccccc2n1

- photoluminescence quantum yield (in ClCCl): 0.41
SMILES: CC1=C(C)c2cccc3c2c(cc2nc4ccccc4nc23)O1

- photoluminescence quantum yield (in ClCCl): 0.61
SMILES: CCCCn1c(-c2ccc(-c3nnc(-c4ccccc4)o3)cc2)nc2c3ccccc3c3ccccc3c21

- photoluminescence quantum yield (in CC#N): 0.61
- photoluminescence quantum yield (in ClCCl): 0.51
SMILES: COC(=O)c1cc(=O)n(C)c2cc(-c3ccccc3OC)sc12

- photoluminescence quantum yield (in ClCCl): 0.14
SMILES: CCCCCCCCCCCCCCCCCCOc1ccc([B-]23NC(c4ccccc4)=Nc4cccc([n+]42)N=C(c2ccccc2)N3)cc1

- photoluminescence quantum yield (in C1CCOC1): 0.0282
SMILES: C(=C(c1ccccc1)c1ccccc1)c1ccc(-c2cc(-c3ccc(C=C(c4ccccc4)c4ccccc4)cc3)c(-c3ccc(C=C(c4ccccc4)c4ccccc4)cc3)cc2-c2ccc(C=C(c3ccccc3)c3ccccc3)cc2)cc1

- photoluminescence quantum yield (in CC#N): 0.61
SMILES: O=c1oc2ccccc2cc1/C=C/c1ccccc1

- photoluminescence quantum yield (in C1CCCCC1): 0.23 and 0.42
SMILES: c1ccc2ccccc2c1

- photoluminescence quantum yield (in CS(C)=O): 0.65
SMILES: Cn1c2ccccc2c(=O)c2ccccc21

- photoluminescence quantum yield (in ClCCl): 0.72
SMILES: O=C(O)C1=C(C(=O)O)C2=C[C@H]3c4ccccc4[C@]2(S1)c1ccccc13

- photoluminescence quantum yield (in C1CCCCC1): 0.003
- photoluminescence quantum yield (in CO): 0.001
SMILES: C/C(=C\c1ccc(C)cc1)c1nc2ccccc2s1

- photoluminescence quantum yield (in ClCCl): 0.109
SMILES: COc1ccc2c(c1)cc(C)c1c3ccccc3[nH]c21
